Structures are written as SMILES. Active and inactive are the calls of the source. No cut-off for these calls is given here.

Assay [1] relates to PANC-1. The experiment in a line: Anticancer activity against human PANC-1 cells assessed as reduction in cell viability in nutrient-deprived medium after 24 hrs by WST-8 assay. The class given is functional. On the technique in general: Formazan colour is commonly taken as a measure of viable cells.
The subject of assay [2] is PANC-1. As to the kind of experiment: Inhibition of PI3K/Akt/mTOR signaling in human PANC-1 cells assessed as decrease in PI3K p110beta level at 1 to 10 uM by Western blot analysis. The assay is classed as cell-based. As to conditions: dose 1-10 µM, time 3-6 hrs, TDE = time-dependent effect. (In general: A western blot detects proteins with antibodies after separation by electrophoresis.)

Assay [3] has as its system PANC-1. The experiment in a line: Inhibition of cell migration in human PANC1 cells assessed as open wound area at 5 uM cultured in nutrient rich DMEM medium measured after 24 hrs by quantitative real-time imaging based wound healing assay (reference value: 15%). The assay is classed as functional. Further details: scale not given: the % may be the effect or the level left.

Assay [4] relates to PANC-1. The experiment in a line: Inhibition of PI3K/Akt/mTOR signaling in human PANC-1 cells assessed as decrease in PI3K p110beta level measured after 3 to 6 hrs by Western blot analysis. The conditions noted are these: dose 1-10 µM, time 3-6 hrs. The class given is cell-based.
Assay [5] deals with PANC-1. The experiment in a line: Inhibition of PI3K/Akt/mTOR signaling in human PANC-1 cells assessed as decrease in pAkt at S473 level at 1 to 10 uM by Western blot analysis. The conditions noted are these: dose 1-10 µM, time 3-6 hrs, TDE = time-dependent effect. The assay is classed as cell-based.
Assay [6] relates to PANC-1. As to the kind of experiment: Inhibition of colony formation in human PANC-1 cells in nutrient rich DMEM medium at 10 uM measured after 24 hrs by crystal violet staining based assay (reference value: 33%). The assay is classed as functional.
Assay [7] deals with PANC-1. As to the kind of experiment: Inhibition of cell migration in human PANC1 cells assessed as open wound area at 5 uM cultured in nutrient rich DMEM medium measured after 12 hrs by quantitative real-time imaging based wound healing assay (reference value: 57.5%). The class given is functional. Also on record: scale not given: the % may be the effect or the level left.
Assay [8] has as its system PANC-1. The experiment in a line: Inhibition of PI3K/Akt/mTOR signaling in human PANC-1 cells assessed as decrease in pmTOR S2481 level at 1 to 10 uM by Western blot analysis. The conditions noted are these: dose 1-10 µM, time 3-6 hrs, TDE = time-dependent effect. The class given is cell-based.
Assay [9] has as its system PANC-1. As to the kind of experiment: Inhibition of PI3K/Akt/mTOR signaling in human PANC-1 cells assessed as decrease in mTOR level measured after 3 to 6 hrs by Western blot analysis. The class given is cell-based. The conditions noted are these: dose 1-10 µM, time 3-6 hrs.
Assay [10] has as its system PANC-1. The experiment in a line: Inhibition of colony formation in human PANC-1 cells in nutrient rich DMEM medium measured after 24 hrs by crystal violet staining based assay. The class given is functional, cell-based. As to conditions: dose microM 2.5-10, time 24.0 hrs.
For assay [11], the system named is PANC-1. As to the kind of experiment: Inhibition of PI3K/Akt/mTOR signaling in human PANC-1 cells assessed as decrease in pmTOR S2481 level measured after 3 to 6 hrs by Western blot analysis. As to conditions: dose 1-10 µM, time 3-6 hrs. The assay is classed as cell-based.
Assay [12] deals with PANC-1. The experiment in a line: Inhibition of colony formation in human PANC-1 cells in nutrient rich DMEM medium at 2.5 uM measured after 24 hrs by crystal violet staining based assay (reference value: 33%). The assay is classed as functional.
Assay [13] deals with PANC-1. The experiment in a line: Inhibition of PI3K/Akt/mTOR signaling in human PANC-1 cells assessed as decrease in mTOR level at 1 to 10 uM by Western blot analysis. As to conditions: dose 1-10 µM, time 3-6 hrs, TDE = time-dependent effect. The class given is cell-based.
Assay [14] concerns PANC-1. As to the kind of experiment: Inhibition of colony formation in human PANC-1 cells in nutrient rich DMEM medium at 5 uM measured after 24 hrs by crystal violet staining based assay (reference value: 33%). The class given is functional.
Assay [15] has as its system PANC-1. The experiment in a line: Inhibition of PI3K/Akt/mTOR signaling in human PANC-1 cells assessed as decrease in PI3K p110alpha level at 1 to 10 uM by Western blot analysis. The class given is cell-based. As to conditions: dose 1-10 µM, time 3-6 hrs, TDE = time-dependent effect.
The subject of assay [16] is PANC-1. As to the kind of experiment: Inhibition of PI3K/Akt/mTOR signaling in human PANC-1 cells assessed as decrease in LC3-II level at 1 to 10 uM measured after 3 to 6 hrs by Western blot analysis. The class given is cell-based. As to conditions: dose 1-10 µM, time 3-6 hrs.
Assay [17] has as its system PANC-1. As to the kind of experiment: Inhibition of PI3K/Akt/mTOR signaling in human PANC-1 cells assessed as decrease in PI3K p110alpha level measured after 3 to 6 hrs by Western blot analysis. The assay is classed as cell-based. As to conditions: dose microM 1-10, time hrs 3-6.
Assay [18] relates to PANC-1. The experiment in a line: Inhibition of PI3K/Akt/mTOR signaling in human PANC-1 cells assessed as decrease in Akt level at 1 to 10 uM by Western blot analysis. As to conditions: dose 1-10 µM, time 3-6 hrs, TDE = time-dependent effect. The assay is classed as cell-based.
The subject of assay [19] is PANC-1. As to the kind of experiment: Induction of cell morphological changes in human PANC-1 cells assessed as dead cells at 0.1 uM after 24 hrs in nutrient-deprived medium by ethidium bromide-acridine orange staining based fluorescence microscopic analysis. The assay is classed as functional.
The subject of assay [20] is PANC-1. As to the kind of experiment: Inhibition of PI3K/Akt/mTOR signaling in human PANC-1 cells assessed as decrease in Akt level measured after 3 to 6 hrs by Western blot analysis. The assay is classed as cell-based. As to conditions: dose 1-10 µM, time 3-6 hrs.
Assay [21] has as its system PANC-1. As to the kind of experiment: Inhibition of PI3K/Akt/mTOR signaling in human PANC-1 cells assessed as decrease in pAkt at S473 level measured after 3 to 6 hrs by Western blot analysis. The assay is classed as cell-based. As to conditions: dose 1-10 µM, time 3-6 hrs.

Turning to `COc1cc(C[C@H]2C(=O)OC[C@@H]2Cc2ccc(OC)c(OC)c2)ccc1O` [ARCTIGENIN], the PC50 with PANC-1 [1] is 0.7 µM.
Still for that read-out and setting: in the case of `CC(C)=CCCC1=CCC2(C(=O)C(C)(C)C(=O)C(C)(C)C2=O)[C@@H](C(C)C)C1` it was 0.02 µM.
Still for that read-out and setting: as for `COc1cc([C@H]2c3cc(O)c(OC)cc3C[C@H](C)[C@@H]2C)ccc1O`, the figure is 88.3 µM.
On to `Oc1cc(O)c2c(c1)O[C@H](c1ccc(O)c(O)c1)[C@@H](O)C2` [CIANIDANOL], for which, in the assay with PANC-1 [1], the PC50 is over 100 µM.
Turning to `CC(C)[C@@H]1C[C@]2(CC[C@]3(C(C)C)C[C@H]23)OC2=C1C(=O)C(C)(C)C(=O)C2(C)C`, in the assay on PANC-1 [1], the PC50 amounted to 3.9 µM.
The same measure, in the same setting: in the case of `COc1ccc(-c2cc(=O)c3c(O)c(C)c(OC)cc3o2)cc1` it was 6.1 µM; in that of `CC(C)[C@H]1C[C@]2(CC[C@]3(C(C)C)C[C@H]23)OC2=C1C(=O)C(C)(C)C(=O)C2(C)C`, 10 µM.
With `CC(C)CC(=O)c1c(O)c([C@H](C2=C(O)C(C)(C)C(=O)C(C)(C)C2=O)C(C)C)c(O)c2c1O[C@]1(C)C=C[C@@H](C(C)C)C[C@H]21`, the inhibition (usually the share of the control response that was lost under treatment) with PANC-1 [2] is “Tde”; in the assay on PANC-1 [4], “Dose-dependent effect”; in the assay with PANC-1 [5], “Tde”; with PANC-1 [8], “Tde”; in the assay with PANC-1 [9], “Dose-dependent effect”; in the assay on PANC-1 [10] it was “Dose-dependent effect”. The inhibition entry in the assay with PANC-1 [11] is “Dose-dependent effect”; in the assay on PANC-1 [13] it was “Tde”; with PANC-1 [15] it was “Tde”; in the assay with PANC-1 [17], “Dose-dependent effect”; with PANC-1 [18], “Tde”; in the assay on PANC-1 [20], “Dose-dependent effect”. The inhibition entry in the assay with PANC-1 [21] is “Dose-dependent effect”. The results for the Activity with PANC-1 [3] and in the assay with PANC-1 [7] were 92% and 95%, respectively. This compound had an inhibition at 10 µM in the assay with PANC-1 [6] of 80%. For the same compound, the inhibition at 2.5 µM with PANC-1 [12] worked out at 41%. In the assay on PANC-1 [14], the inhibition at 5 µM was found to be 63%. Also, in the assay on PANC-1 [16], the inhibition entry was “Active”. For the same compound, the result in the assay with PANC-1 [19] was Active. The PC50 in the assay on PANC-1 [1] came to 0.065 µM.
`CC(C)[C@@H]1C=C[C@@]2(C)OC3=C(C(=O)C(C)(C)C(=O)C3(C)C)[C@@H](C(C)C)[C@H]2C1`: the PC50 in the assay on PANC-1 [1] turned out to be 5 µM.
`CCC(C)[C@H](C1=C(O)C(C)(C)C(=O)C(C)(C)C1=O)c1c(O)c(C(=O)CC(C)C)c(O)c2c1O[C@]1(C)C=C[C@@H](C(C)C)C[C@H]21` (some centres not stated): in the assay on PANC-1 [19], the outcome was Active. Moreover, the PC50 in the assay with PANC-1 [1] came to 0.01 µM.
Consider `C=C1CC[C@H]2[C@@H](C(C)C)C3=C(O[C@]2(C)CC[C@@H]2[C@@H]1CC2(C)C)C(C)(C)C(=O)C(C)(C)C3=O`, for which the PC50 in the assay with PANC-1 [1] is 28.1 µM.
Still for that read-out and setting: as for `CC(C)[C@@H]1C[C@]2(CC[C@H]3C[C@@H]2C3(C)C)OC2=C1C(=O)C(C)(C)C(=O)C2(C)C`, the figure is 8 µM.
Same read-out and setting: as for `CC(C)CC(=O)c1c(O)c2c(c3c1OC1(O)C(C(=O)C(C)(C)C(=O)C1(C)C)[C@@H]3C(C)C)OC1=C(C(=O)C(C)(C)C(=O)C1(C)C)[C@@H]2C(C)C` (some centres not stated), the figure is 0.6 µM.
Regarding `CC(C)[C@@H]1C=C[C@@]2(C)OC3=C(C(=O)C(C)(C)C(=O)C3(C)C)[C@H](C(C)C)[C@H]2C1`, in the assay on PANC-1 [1], the PC50 was 11.7 µM.
Same read-out and setting: in the case of `COc1ccc(-c2cc(=O)c3c(O)c(C)c(OC)c(C)c3o2)cc1` it was 1 µM; in that of `CC1(C)C=C2C(=O)C(C)(C)C(=O)C(C)(C)C2(O)OO1` (configuration not stated) [ENDOPEROXIDE HORMONE G3], 32.3 µM.

Values taken from ChEMBL document CHEMBL4699445, “Highly Potent Antiausterity Agents from Callistemon citrinus and Their Mechanism of Action against the PANC-1 Human Pancreatic Cancer Cell Line” (2020).
